ChEMBL document CHEMBL5338715, “Identification of (S)-1-(2-(2,4-difluorophenyl)-4-oxothiazolidin-3-yl)-3-(4-((7-(3-(4-ethylpiperazin-1-yl)propoxy)-6-methoxyquinolin-4-yl)oxy)-3,5-difluorophenyl)urea as a potential anti-colorectal cancer agent” (Eur J Med Chem, 2022)

Tests used:
BaF3 [1] = experiment: cells; conditions: Mus musculus, BaF3, 72 h
HCT-116 = experiment: cells; conditions: Homo sapiens
BaF3 [2] = experiment: cells; conditions: Mus musculus, BaF3, 72 h; remark: listed apart in the source
HT-29 = experiment: cells; conditions: Homo sapiens
[3] = biological target: T1, Proto-oncogene tyrosine-protein kinase receptor Ret (Homo sapiens, UniProt P07949); experiment: Inhibition of RET (unknown origin) by kinome scan assay
MKN-45 = experiment: cells; conditions: Homo sapiens
LoVo = experiment: cells; conditions: Homo sapiens
COLO 205 = experiment: cells; conditions: Homo sapiens
[4] = Cytotoxicity against human FHC cells assessed as cell growth inhibition by MTT assay; assay type: toxicity, cell-based
[5] = biological target: Platelet-derived growth factor receptor beta (Homo sapiens) (UniProt P09619); experiment: Inhibition of PDGFRbeta (unknown origin) assessed as residual activity at 1 uM by kinome scan assay relative to control
[6] = biological target: T1, Proto-oncogene tyrosine-protein kinase receptor Ret; experiment: Inhibition of RET (unknown origin) assessed as residual activity at 1 uM by kinome scan assay relative to control
[7] = Metabolic stability in human liver microsomes assessed as intrinsic clearance at 1 uM measured upto 45 mins in presence of NADPH by LC-MS/MS analysis; assay type: ADME, Microsome; conditions: read-out: CLH
EBC-1 = experiment: cells; conditions: Homo sapiens
SNU-5 = experiment: cells; conditions: Homo sapiens
[8] = biological target: T2, Tyrosine-protein kinase ABL1 (Homo sapiens, UniProt P00519); experiment: Inhibition of ABL (unknown origin) assessed as residual activity at 1 uM by kinome scan assay relative to control
[9] = Metabolic stability in human liver microsomes assessed as half life at 1 uM measured upto 45 mins in presence of NADPH by LC-MS/MS analysis; assay type: ADME, Microsome
cells = conditions: Homo sapiens, TT
[10] = biological target: T2, Tyrosine-protein kinase ABL1; experiment: Inhibition of ABL (unknown origin) by kinome scan assay
[11] = Metabolic stability in human liver microsomes assessed as parent compound remaining at 1 uM measured after 45 mins in presence of NADPH by LC-MS/MS analysis; assay type: ADME, Microsome; conditions: read-out: Stability
NCI-H1993 = experiment: cells; conditions: Homo sapiens

T2 sequence (P00519 whole entry): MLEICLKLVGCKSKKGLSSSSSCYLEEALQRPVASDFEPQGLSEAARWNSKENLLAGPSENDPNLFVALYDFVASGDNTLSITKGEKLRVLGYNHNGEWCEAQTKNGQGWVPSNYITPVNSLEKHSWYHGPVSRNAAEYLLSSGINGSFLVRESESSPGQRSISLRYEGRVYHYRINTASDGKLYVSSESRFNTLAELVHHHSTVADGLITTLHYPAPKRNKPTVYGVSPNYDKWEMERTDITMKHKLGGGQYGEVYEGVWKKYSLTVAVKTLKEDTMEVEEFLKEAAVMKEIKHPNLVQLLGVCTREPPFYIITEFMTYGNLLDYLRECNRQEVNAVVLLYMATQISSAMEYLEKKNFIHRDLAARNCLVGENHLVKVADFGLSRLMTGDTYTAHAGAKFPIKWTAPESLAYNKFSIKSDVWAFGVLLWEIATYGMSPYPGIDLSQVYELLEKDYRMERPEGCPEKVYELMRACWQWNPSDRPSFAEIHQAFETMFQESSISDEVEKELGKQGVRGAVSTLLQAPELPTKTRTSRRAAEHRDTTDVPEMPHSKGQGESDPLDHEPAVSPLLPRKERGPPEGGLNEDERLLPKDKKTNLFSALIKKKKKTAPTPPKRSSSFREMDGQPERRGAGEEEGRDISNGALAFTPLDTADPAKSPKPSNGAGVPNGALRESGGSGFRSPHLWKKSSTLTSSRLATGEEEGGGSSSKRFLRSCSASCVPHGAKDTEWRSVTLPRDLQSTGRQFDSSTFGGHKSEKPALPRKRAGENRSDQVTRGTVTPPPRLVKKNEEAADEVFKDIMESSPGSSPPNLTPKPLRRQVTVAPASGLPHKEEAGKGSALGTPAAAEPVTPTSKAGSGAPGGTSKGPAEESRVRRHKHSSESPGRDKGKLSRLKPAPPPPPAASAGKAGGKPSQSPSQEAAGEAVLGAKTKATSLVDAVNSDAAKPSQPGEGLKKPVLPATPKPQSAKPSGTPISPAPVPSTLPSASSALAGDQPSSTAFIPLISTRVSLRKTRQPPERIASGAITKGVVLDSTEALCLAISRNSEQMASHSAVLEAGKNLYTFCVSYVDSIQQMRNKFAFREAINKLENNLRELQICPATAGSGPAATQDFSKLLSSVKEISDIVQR
T1 sequence (P07949 whole entry): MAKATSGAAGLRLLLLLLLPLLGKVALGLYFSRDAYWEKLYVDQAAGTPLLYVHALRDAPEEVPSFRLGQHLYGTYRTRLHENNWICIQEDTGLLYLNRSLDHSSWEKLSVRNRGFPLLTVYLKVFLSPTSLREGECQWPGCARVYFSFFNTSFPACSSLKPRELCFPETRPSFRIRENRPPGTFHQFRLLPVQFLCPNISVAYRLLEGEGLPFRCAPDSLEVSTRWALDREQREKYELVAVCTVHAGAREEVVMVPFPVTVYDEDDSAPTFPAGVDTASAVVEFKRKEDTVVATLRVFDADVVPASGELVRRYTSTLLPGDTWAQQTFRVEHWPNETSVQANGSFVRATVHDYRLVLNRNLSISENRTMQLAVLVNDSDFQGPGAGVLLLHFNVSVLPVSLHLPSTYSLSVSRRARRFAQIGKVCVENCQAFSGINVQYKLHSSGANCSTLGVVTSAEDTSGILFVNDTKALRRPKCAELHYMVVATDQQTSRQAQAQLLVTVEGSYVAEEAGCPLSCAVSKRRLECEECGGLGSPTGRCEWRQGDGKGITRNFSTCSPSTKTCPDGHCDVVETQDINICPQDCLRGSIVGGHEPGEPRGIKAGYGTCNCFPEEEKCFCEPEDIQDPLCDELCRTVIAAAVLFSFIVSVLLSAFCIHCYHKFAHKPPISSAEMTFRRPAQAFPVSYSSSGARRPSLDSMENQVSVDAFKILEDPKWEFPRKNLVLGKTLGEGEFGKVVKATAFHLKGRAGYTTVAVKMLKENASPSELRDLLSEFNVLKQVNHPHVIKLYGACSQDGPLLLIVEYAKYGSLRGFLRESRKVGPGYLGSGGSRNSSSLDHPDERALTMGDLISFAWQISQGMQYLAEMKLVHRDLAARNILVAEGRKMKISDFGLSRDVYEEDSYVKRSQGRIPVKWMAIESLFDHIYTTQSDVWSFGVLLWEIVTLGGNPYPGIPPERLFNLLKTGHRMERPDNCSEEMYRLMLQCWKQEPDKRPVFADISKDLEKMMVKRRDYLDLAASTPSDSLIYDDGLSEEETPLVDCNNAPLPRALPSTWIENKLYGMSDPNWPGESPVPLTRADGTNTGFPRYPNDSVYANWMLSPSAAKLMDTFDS
Sequence of Platelet-derived growth factor receptor beta (Homo sapiens) (P09619 whole entry): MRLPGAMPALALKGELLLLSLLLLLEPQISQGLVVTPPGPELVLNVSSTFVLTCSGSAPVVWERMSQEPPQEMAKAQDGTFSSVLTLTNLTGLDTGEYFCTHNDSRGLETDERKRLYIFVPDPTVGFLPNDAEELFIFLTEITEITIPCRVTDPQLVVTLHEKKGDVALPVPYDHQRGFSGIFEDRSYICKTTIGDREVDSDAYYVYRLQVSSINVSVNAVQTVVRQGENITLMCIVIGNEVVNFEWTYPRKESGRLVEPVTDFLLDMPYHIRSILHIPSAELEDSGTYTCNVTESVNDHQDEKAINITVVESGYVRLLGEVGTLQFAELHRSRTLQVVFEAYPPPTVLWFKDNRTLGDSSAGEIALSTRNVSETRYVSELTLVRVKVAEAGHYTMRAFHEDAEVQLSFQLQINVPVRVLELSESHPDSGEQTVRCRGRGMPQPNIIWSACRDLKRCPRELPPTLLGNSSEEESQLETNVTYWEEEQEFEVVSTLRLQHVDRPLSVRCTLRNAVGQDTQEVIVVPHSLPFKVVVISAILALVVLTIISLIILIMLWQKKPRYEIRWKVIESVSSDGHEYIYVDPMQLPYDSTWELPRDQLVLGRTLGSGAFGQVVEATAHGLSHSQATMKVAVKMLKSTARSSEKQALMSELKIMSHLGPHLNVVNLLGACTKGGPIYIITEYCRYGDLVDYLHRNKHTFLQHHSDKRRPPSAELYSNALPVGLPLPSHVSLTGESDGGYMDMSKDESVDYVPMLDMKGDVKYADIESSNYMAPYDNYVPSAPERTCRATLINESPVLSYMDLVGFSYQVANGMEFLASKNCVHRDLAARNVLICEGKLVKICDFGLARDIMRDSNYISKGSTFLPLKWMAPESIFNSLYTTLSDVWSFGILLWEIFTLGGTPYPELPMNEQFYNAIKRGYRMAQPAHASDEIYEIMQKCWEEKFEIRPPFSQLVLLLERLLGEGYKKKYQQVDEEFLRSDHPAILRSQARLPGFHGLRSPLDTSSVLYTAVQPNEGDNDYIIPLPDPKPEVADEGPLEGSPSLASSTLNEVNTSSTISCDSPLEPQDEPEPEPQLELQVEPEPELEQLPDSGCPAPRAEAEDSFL

## CCN1CCN(CCCOc2cc3nccc(Oc4c(F)cc(NC(=O)NN5C(=O)CSC5c5ccccc5)cc4F)c3cc2OC)CC1 (centres undefined)
BaF3 [1]
  IC50: 140 nM
HCT-116
  IC50: 210 nM
BaF3 [2]
  IC50: 260 nM
HT-29
  IC50: 140 nM

## CCN1CCN(CCCOc2cc3nccc(Oc4c(F)cc(NC(=O)NN5C(=O)CSC5c5ccc(F)cc5F)cc4F)c3cc2OC)CC1 (racemic)
[3]
  IC50: 27.9 nM
BaF3 [1]
  IC50: 57 nM
MKN-45
  IC50: 380 nM
LoVo
  IC50: 1600 nM
HCT-116
  IC50: 98 nM
COLO 205
  IC50: 35 nM
HT-29
  IC50: 530 nM
[4]
  IC50: 4200 nM
[5]
  Activity: 0.1%
[6]
  Activity: 0.25%
[7]
  CLint scaled at 1 µM: 10.7 mL/min/kg
EBC-1
  IC50: 150 nM
SNU-5
  IC50: 170 nM
[8]
  Activity: 0.25%
[9]
  half-life at 1 µM: 2.7 h
cells
  IC50: 780 nM
[10]
  IC50: 145 nM
[11]
  remaining at 0.75 h, 1 µM: 82%
NCI-H1993
  IC50: 1500 nM

## CCN1CCN(CCCOc2cc3nccc(Oc4c(F)cc(NC(=O)NN5C(=O)CSC5c5ccc(F)cc5)cc4F)c3cc2OC)CC1 (centres undefined)
BaF3 [1]
  IC50: 71 nM
HCT-116
  IC50: 200 nM
BaF3 [2]
  IC50: 140 nM
HT-29
  IC50: 520 nM

## CNC(=O)c1c(C)oc2cc(Oc3ncnc4cc(OC)c(OC)cc34)ccc12 [FRUQUINTINIB]
LoVo
  IC50: > 10000 nM
HCT-116
  IC50: 800 nM
COLO 205
  IC50: > 10000 nM
HT-29
  IC50: 1500 nM

## CCN(CC)CCCOc1cc2nccc(Oc3ccc(NC(=O)NN4C(=O)CSC4c4c(F)cccc4F)cc3)c2cc1OC (centres undefined)
BaF3 [1]
  IC50: 58 nM
HCT-116
  IC50: 150 nM
BaF3 [2]
  IC50: 120 nM
HT-29
  IC50: 530 nM

## O=c1ccc2ccc(O)cc2o1 [UMBELLIFERONE]
[7]
  CLint scaled at 1 µM: 289 mL/min/kg
[9]
  half-life at 1 µM: 0.1 h
[11]
  remaining at 0.75 h, 1 µM: 0.8%

## CCN(CC)CCCOc1cc2nccc(Oc3ccc(CC(=O)NN4C(=O)CSC4c4c(F)cccc4F)cc3)c2cc1OC (centres undefined)
BaF3 [1]
  IC50: 1300 nM
HCT-116
  IC50: 7800 nM
BaF3 [2]
  IC50: 2600 nM
HT-29
  IC50: 1600 nM

## CCN(CC)CCCOc1cc2nccc(N(C)c3ccc(NC(=O)NN4C(=O)CSC4c4c(F)cccc4F)cc3)c2cc1OC (centres undefined)
BaF3 [1]
  IC50: 2200 nM
HCT-116
  IC50: > 10000 nM
BaF3 [2]
  IC50: 6900 nM

## COc1cc2c(Oc3ccc(NC(=O)NN4C(=O)CSC4c4c(F)cccc4F)cc3)ccnc2cc1OCCCN1CCCC1 (centres undefined)
BaF3 [1]
  IC50: 66 nM
HCT-116
  IC50: 810 nM
BaF3 [2]
  IC50: 150 nM
HT-29
  IC50: 160 nM

## CCN1CCN(CCCOc2cc3nccc(Oc4c(F)cc(NC(=O)NN5C(=O)CS[C@@H]5c5ccc(F)cc5F)cc4F)c3cc2OC)CC1
COLO 205
  IC50: 63 nM
[4]
  IC50: 4500 nM
[9]
  half-life at 1 µM: 2.58 h

## CCN(CC)CCCOc1cc2nccc(Oc3ccc(NC(=O)NN4C(=O)CSC4c4c(F)cccc4F)cc3C)c2cc1OC (centres undefined)
BaF3 [1]
  IC50: 460 nM
HCT-116
  IC50: 640 nM
BaF3 [2]
  IC50: 840 nM
HT-29
  IC50: 220 nM

## C[C@]12CC[C@H]3[C@@H](CCC4=CC(=O)CC[C@@]43C)[C@@H]1CC[C@@H]2O [TESTOSTERONE]
[7]
  CLint scaled at 1 µM: 164 mL/min/kg
[9]
  half-life at 1 µM: 0.177 h
[11]
  remaining at 0.75 h, 1 µM: 8.1%
